Columns and labels:
Assay in all cases: relative viability (nuclei count vs DMSO), 5 days (fraction); higher = more cells survive
[1] = compound: CCn1c(-c2nonc2N)nc2cnc(Oc3cccc(NC(=O)c4ccc(OCCN5CCOCC5)cc4)c3)cc21 + CCNC(=O)c1noc(-c2cc(C(C)C)c(O)cc2O)c1-c1ccc(CN2CCOCC2)cc1 [Luminespib] (partner 0.01 µM)
In short: (§1)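 Lung cancer cell lines were pin-tool dosed in 1536-well plates on the day after seeding, with either a lone drug or a fixed anchor-drug dose plus five library-drug doses (not always all listed) in √10 steps. Nuclei were counted on 4× images after 5 days. Relative viability is the ratio of treated-well to vehicle-well nuclei counts, with each value a median of duplicate plates.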

[2] = compound: N=C1NC(=O)/C(=C/c2ccc(O)cc2)S1 [Mirin] + CCNC(=O)c1noc(-c2cc(C(C)C)c(O)cc2O)c1-c1ccc(CN2CCOCC2)cc1 [Luminespib] (partner 0.01 µM)
In short: as §1

[3] = compound: N=C1NC(=O)/C(=C/c2ccc(O)cc2)S1 [Mirin] + C[C@@H](Oc1cc(-c2cnn(C3CCNCC3)c2)cnc1N)c1c(Cl)ccc(F)c1Cl [Crizotinib] (partner 1 µM)
In short: as §1

[4] = compound: N=C1NC(=O)/C(=C/c2ccc(O)cc2)S1 [Mirin] + N=C(N)NC(=N)NCCc1ccccc1 [Phenformin] (partner 250 µM)
In short: as §1

Cell Line | relative viability ([1]; first compound 0.04 µM) | relative viability ([1]; first compound 0.1265 µM) | relative viability ([1]; first compound 0.4 µM) | relative viability ([1]; first compound 1.265 µM) | relative viability ([1]; first compound 4 µM) | relative viability ([2]; first compound 0.25 µM) | relative viability ([2]; first compound 0.7906 µM) | relative viability ([2]; first compound 2.5 µM) | relative viability ([2]; first compound 7.906 µM) | relative viability ([2]; first compound 25 µM) | relative viability ([3]; first compound 0.25 µM) | relative viability ([3]; first compound 0.7906 µM) | relative viability ([3]; first compound 2.5 µM) | relative viability ([3]; first compound 7.906 µM) | relative viability ([3]; first compound 25 µM) | relative viability ([4]; first compound 0.25 µM) | relative viability ([4]; first compound 0.7906 µM) | relative viability ([4]; first compound 2.5 µM) | relative viability ([4]; first compound 7.906 µM) | relative viability ([4]; first compound 25 µM)
NCI-H3122 | 0.0608 | 0.0978 | 0.0882 | 0.0945 | 0.0955 | 0.0805 | 0.0865 | 0.0952 | 0.0621 | 0.0807 | 0.247 | 0.256 | 0.266 | 0.229 | 0.247 | 0.378 | 0.426 | 0.414 | 0.378 | 0.467
NCI-H2126 | 1.06 | 0.903 | 0.776 | – | 0.635 | 0.86 | 0.881 | 0.934 | 0.9 | 0.898 | 1.02 | 1.07 | 0.981 | 0.994 | 1.21 | 0.549 | 0.471 | 0.509 | 0.546 | 0.532
NCI-H520 | 0.232 | 0.215 | 0.217 | 0.197 | 0.183 | 0.234 | 0.241 | 0.225 | 0.235 | 0.211 | 0.993 | 0.715 | 0.715 | 0.631 | 0.377 | 0.751 | 0.459 | 0.701 | 0.338 | 0.356
LOU-NH91 | 0.367 | 0.328 | 0.331 | 0.271 | 0.248 | 0.304 | 0.301 | 0.351 | 0.322 | 0.295 | 0.759 | – | 0.718 | 0.77 | 0.902 | 0.718 | 0.671 | 0.703 | 0.668 | 0.856
NCI-H1651 | 0.843 | 1.14 | 0.71 | 0.689 | 0.491 | 0.851 | 0.694 | 0.833 | 0.854 | 0.784 | 0.827 | 0.875 | 0.849 | 0.877 | 0.821 | 0.332 | 0.34 | 0.324 | 0.336 | 0.319
NCI-H460 | 0.0313 | 0.0331 | 0.0317 | 0.0272 | 0.0222 | 0.0342 | 0.0263 | 0.0361 | 0.0242 | 0.0254 | 0.887 | 1.15 | 0.935 | 0.875 | 0.915 | 0.551 | 0.485 | 0.5 | 0.522 | 0.623
